Measurements reported in patent US20240209456A1, “METHODS AND COMPOSITIONS RELATED TO CELL-CYCLE RNA's” (BETH ISRAEL DEACONESS MEDICAL CENTER, priority 2021, published 2024).

System: acH2A.Z
Experiment: nascent ChIP-qPCR (nasChIP) with acH2A.Z antibody
Type: cell-based, human
Settings: for restoration of acH2A.Z at c-MYC locus after DRB reversal: HL-60, 2 hrs after DRB wash-out, MG149 200 μM, TH1834 500 μM; for restoration of acH2A.Z enrichment at PU1 locus after DRB reversal: HL-60, MG149 and TH1834 treatments
Protocol: To confirm the results of the ChIP-Seq, and to track the deposition of the H2A.Z, acH2A.Z nascent chromatin immunoprecipitation (nasChIP-PCR) was performed with the antibodies to H2A.Z, acH2A.Z and TIP60, as nasChIP-PCR can be used to track histone deposition. Cells were synchronized with a double thymidine block, released into S Phase and treated with DRB for 2 hrs. The medium was supplemented with the EdU DNA analog to enable collection of nascent chromatin DNA (FIG. 4A). […] The results of these experiments provide an important link between the suppressed c-MYC SPEARs expression and the reduced levels of the replacement histone H2A.Z, as an even greater degree of the loss of the acetylated acH2A.Z forms at the TSS of the c-MYC locus. Similar results were obtained for another gene locus, PU1 (FIG. 4F, right panels).
Cells were synchronized with a double thymidine block and released into S Phase with DMSO/DRB added. After 2 hours (during which H2A.Z levels remained unaffected, but SPEARs and mRNA levels drop, see FIG. 10A), cells were washed and then incubated for a further 2 hours with or without the TIP60 inhibitors. This interval is sufficient for the levels of both the c-MYC mRNAs and its SPEARs to be restored when the TIP60 inhibitors are absent (results shown in FIG. 11B). The medium was supplemented with the EU RNA and EdU DNA analogs to enable collection of nascent RNAs and newly formed chromatin that had escaped the drug-induced inhibition of transcription or acetylation. After 2 hours with the TIP60 inhibitors present (MG-149 at 200 μM and TH1834 at 500 μM), during which the levels of acH2A.Z dropped (see FIG. 11A), cells were crosslinked and subjected to nasChIP and nascent RNA expression analyses (nas-qRT-PCR) (FIG. 6B). Collected RNAs were biotinylated by click chemistry, isolated on streptavidin beads and analyzed by nas-qRT-PCR (see “Methods” below for details; FIG. 8A; bottom panel).
To further confirm that SPEARs realize their c-MYC regulatory function directly through the TIP60/acH2A.Z pathway, the differences in chromatin occupancy of H2A.Z, acH2A.Z and TIP60 were assessed after inhibition of transcription (“DRB”), reversal of inhibition (“DRB REV”) and reversal of inhibition in the presence of the two TIP60 inhibitors, using nasChIP-qPCR. […] By analyzing the nascent RNAs and chromatin, only the immediate changes in c-MYC expression and TIP60, acH2A.Z and H2A.Z occupancy were examined within the locus as imposed by the inhibition of transcription and/or acetylation. […] When the two HAT inhibitors are present, the reversal of transcriptional inhibition can only restore the enrichment levels of the unmodified H2A.Z and TIP60 (FIG. 6D; left and right panels), but not the levels of acH2A.Z (middle panel). […] Furthermore, no enrichments of H2A.Z, acH2A.Z or TIP60 was detected within the Gene Desert locus (FIG. 11C). […] Similar results were obtained for the PU.1 locus (FIG. 11D and FIG. 11E). These findings using nasChIP are in line with the general trend obtained globally by ChIP-Seq. (FIG. 4C).
Nascent RNA/DNA capture was performed using Click-iT Nascent RNA Capture Kit (ThermoFisher) according to the manufacturer's instructions with minor modifications. Briefly, 1. Labeling the cells with EU/EdU. 200 mM EU or 30 mM EdU stock solutions were added to the cells, to a final concentration 0.5 mM or 30 μM, respectively. 2. Incubation. The cells were incubated for 1 or 2 hours. 3. RNA/DNA isolation. The cells were harvested and the RNA/DNA were isolated and dissolved in 14 μL of H2O. 4. Biotinylation of RNA/DNA by Click reaction. Click-iT reaction cocktail (50 μL per reaction) was prepared accordingly to manufacturer's instructions: a mixture containing 1× Click-iT EU buffer; 2 mM CuSO4; 1 mM Biotin azide; 13.25 μL of the isolated RNA; 10 mM Click-iT reaction buffer additive 1; 12 mM Click-iT reaction buffer additive 2 was prepared. After adding each component, the reaction cocktail was gently mixed by vortexing. […]

Structure (SMILES)	restoration of acH2A.Z at c-MYC locus after DRB reversal	restoration of acH2A.Z enrichment at PU1 locus after DRB reversal	acH2A.Z enrichment at PU1 locus (HL-60, DRB treatment)	acH2A.Z enrichment at c-MYC locus (HL-60 released into S Phase, DRB 2 hrs)
CCCCCCCc1ccc(CCc2cccc(O)c2C(=O)O)cc1 [MG149]	prevents the restoration	preventing the restoration		
OC[C@H]1O[C@@H](n2cnc3cc(Cl)c(Cl)cc32)[C@H](O)[C@@H]1O [DRB, 5,6-Dichlorobenzimidazole 1-β-D-ribofuranoside]			loss	diminished enrichment and loss
O=C(O)Cn1nnc(-c2ccc(CN(CCCCOc3ccc(CN4CCCC4)cc3)CCc3ccccc3)cc2)n1 [TH1834]	prevents the restoration	preventing the restoration		
